Reference: US10668048B2, “Compounds for inhibiting bacterial growth via phosphatidylglycerol binding” (Wichita State University, priority 2016, dated 2020)

Tests used:
[1] = FCS binding of liptin to PG at the membrane interface (liposomes, surfactant vesicles)
Method: The porphyrin 3e was used to examine the liptin's affinity and selectivity for PG when PG was present as part of a membrane bilayer. In this example, fluorescence correlation spectroscopy (FCS) was used to measure the fraction of liptin bound to surfactant vesicles or liposomes containing a known amount of PG. This approach is fast, reliable and accurate, and is possible when the liptin is a stable fluorophore, as in the case of 3e.
FCS results are evaluated by treating the time dependent fluorescence intensity acquired from a dilute solution of the liptin using a focused laser beam as the excitation source. Temporal fluctuations in the fluorescence intensity are a result of the diffusion of the liptin through the focused laser beam. When the liptin binds to a vesicle, its apparent diffusion coefficient decreases by two orders of magnitude.
FIG. panels 9A and 9C contain examples of autocorrelation decays for liptin 3e in with liposomes (FIG. 9A) and surfactant vesicles (FIG. 9C) containing varying amounts of PG. Specifically, FIG. 9 illustrates an autocorrelation analysis of liptin 3e binding to PG-doped membranes of liposomes and positively-charged surfactant vesicles. A) Autocorrelation decays for liptin with varying percentages of PG in PE liposome. B) Binding constant values as a function of PS and PG in PE liposome. C) Autocorrelation decays for liptin with varying percentages of PG in positively-charged surfactant vesicles. D) Binding constant of liptin with varying percentages of PG in positively-charged surfactant vesicles. […] In FIGS. 9A and 9C, the markers are the experimental data and the solid lines are the fits that determine the fraction of liptin bound, f. This quantity is then used to calculate the binding constant:
[formula] where [R] is the total concentration of […], and it has been assumed that half of the PG is located on the membrane inner leaflet and thus not available for binding.

[2] = Carboxy-fluorescein efflux from PE/PG liposomes; format: biochemical; conditions: 2.5 μM, after 90 minutes
Method: Liptin 3e causes membrane leakage when it binds to PG in a membrane, as evidenced by the efflux of fluorescent carboxy-fluorescein from model lipid vesicles of 80% PE/20% PG (the approximate lipid content models E. coli's plasma membrane), shown in FIG. 19A. […] Not shown is the effect of the bee AMP melittin, which forms pores in membranes at 2.5 μM concentrations. Upon addition of melittin within a few minutes of addition the efflux is 100%.
Liptins 3f-h also cause membrane leakage when they bind to PG in a membrane, as evidenced by the efflux of fluorescent carboxy-fluorescein from model lipid vesicles of 80% PE/20% PG (the lipid content models E. coli's plasma membrane), shown in FIG. 19B. The circle bottom line data set is the control without liptin. […] Y-axis: % Efflux; X-axis: Time in minutes.
This greater efflux activity may well translate to lower MICs of these two compounds relative to liptin 3e, and may well change the liptin activity from bacteriostatic to bactericidal. […]

[3] = system: E. coli, Staphylococcus aureus, Enterococcus faecalis; test: MIC of liptin 3e, overall statement; format: cell-based; conditions: LB culture
Method: An E. Coli (JMR 223-MC4100) plate was grown up overnight in LB agar at 37° C. A good colony was selected and added to 5 mL LB growth media. This was incubated at 37° C. with shaking at 250 rpm until the solution reaches an OD of at least 0.5 or higher at 600 nm. A final solution was diluted 500× to an OD of 0.001, correlating to a CFU of 1×10^6. 5 ml solutions of the diluted bacterial broth were measured out. Liptins were added to make solutions of 20 μM, 15 μM, 10 μM, 5 μM, 4 μM, 3 μM, 2 μM, and 1 μM (This means adding 0.2 mL, 0.15 mL, 0.1 mL, 0.05 mL, 0.04 mL, 0.03 mL, 0.02 mL, 0.01 mL of the 500 μM solution). Cultures were allowed to incubate overnight at 37° C. with shaking at 250 rpm. The following day, cultures were analyzed to evaluate the presence or absence of bacterial growth by spectrophotometry at 600 nm (0.66 mg of liptin in 0.95 mL of water; 0.15 OD Diluted 150× to OD of 0.001).

E. coli (MC4100) [4] = test: Overnight growth study in LB broth; format: cell-based
Excerpt: This spectrum is identical to the spectrum of just liptin in water illustrating that the liptin is not degraded or metabolized when exposed to bacteria over long periods of time.

E. coli (MC4100) [5] = test: Bactericidal (MBC) experiment, LB plates; format: cell-based; conditions: overnight culture then LB plate 16 hours
Method: (§1) Cultures (5 mL) starting at 0.001 OD were grown overnight at 37° C. with different concentrations of […], and then a sample of culture was added to an LB plate and then it was incubated for 16 hours at 37° C. […] All experiments were done in triplicate, including control.

E. feucalis (29213) = test: Bactericidal (MBC) experiment, LB plates; format: cell-based; conditions: overnight culture then LB plate 16 hours
Method: as §1

S. aureus (33186) = test: Bactericidal (MBC) experiment, LB plates; format: cell-based; conditions: 5 μM, overnight culture then LB plate 16 hours
Method: as §1

[6] = system: S. aureus plasma membrane; test: Plasma membrane depolarization, DiS-C2(5) fluorescence; format: cell-based; conditions: 0.69-2.6 μM added at 90 s
Method: The graph in FIGS. 15A-15C represents the depolarization of S. aureus plasma membrane measured by an increase in the fluorescence of 3,3-diethylthiodicabodyanine iodide. The dye, which has direct access to the Gram-positive plasma membrane, becomes highly fluorescent in membranes where polarization is lost. […] The membrane effects were measured against the known membrane-disruptive agent, cationic steroid antimicrobial-25 (CSA-25), one of a group of cholic acid-derived antimicrobial also known as ceragenins. This assay measured the effects of the Ammonium-picket porphyrin alone those of CSA-25 alone or a combination of Ammonium-picket porphyrin and CSA-25.
Bacterial cultures were grown overnight in TSB at 37° C. Cells were harvested by centrifugation and washed in a buffer containing 250 mM sucrose, 5 mM MgSO4, and 10 mM potassium phosphate (pH 7.0). After three washings, pellets were re-suspended in the same buffer. […] Fluorescence measurements were taken at 30-s intervals before and after addition of ceragenins. FIG. 15A illustrates the depolarization of S. aureus measured by an increase in fluorescence of 3,3′ diethylthiodicarbodyanine iodide (DiS-C2(5)). […]
FIG. 15B illustrates the depolarization of S. aureus measured by an increase in fluorescence of 3,3′ diethylthiodicarbodyanine iodide. […]

[7] = system: E. coli BL 21 (Tuner pLysS); test: Tetracycline-induced YqhD expression, gel electrophoresis; format: cell-based; conditions: 10 μM

NCC(=O)Nc1ccccc1-c1c2nc(c(-c3ccccc3NC(=O)CN)c3ccc([nH]3)c(-c3ccccc3NC(=O)CN)c3nc(c(-c4ccccc4NC(=O)CN)c4ccc1[nH]4)C=C3)C=C2.O=C(O)C(F)(F)F.O=C(O)C(F)(F)F.O=C(O)C(F)(F)F.O=C(O)C(F)(F)F [Liptin 3e]
PG binding affinities at the membrane interface ([1]; FCS): ~10^4 M^−1
Ka ([1]; Lipid vesicles containing 10-30% PG): 10^4
selectivity of binding PG vs phosphatidylserine (PS) ([1]; lipid vesicles of binary mixtures of PG or PS with PE): selective for PG over the PS
binding to surfactant vesicle without PG ([1]; no PG, only anionic component sodium dodecylbenzenesulfonate (SDBS)): Negligible binding
binding constant ([1]; surfactant vesicle with 1% of PG and 35% SDBS): 47000 M⁻¹
dye leakage (efflux) [2]: 5-10%
MIC [3]: less than 2 μM
stability: UV/Visible spectrum of membrane-bound liptin (E. coli (MC4100) [4]; 12 hours in bacterial culture): no change
time until bacterial replication completely stops (E. coli (MC4100) [4]; one-time addition of 10 μM, growth phase, 37° C., OD=0.2, stopped for 12 hours): 1 to 2 h
MBC (concentration with low or no growth on LB plates) (E. coli (MC4100) [5]): much more than four times the MIC concentrations
MBC (concentration with low or no growth on LB plates) (E. feucalis (29213)): much more than four times the MIC concentrations
bactericidal effect (S. aureus (33186)): strong bactericidal effects
depolarization: fluorescence of 3,3-diethylthiodicabodyanine iodide [6]: increased in a concentration-dependent manner
protein synthesis [7]: most protein synthesis was effectively disrupted
